Entries after “also recorded” stand apart in the source; their conditions may differ. Ends that are not written are not given here.

The target of one series is chymotrypsin (Bos taurus, UniProt P00766). Put plainly: Enzymatic degradation study: proteolytic stability on incubation with chymotrypsin (HPLC, LCMS). The series is classed as in vitro ADME. The settings on record: for remaining at 5 min, 1.5 mM / remaining at 0.25 h, 1.5 mM / remaining at 0.5 h, 1.5 mM / remaining at 0.75 h, 1.5 mM / remaining at 1 h, 1.5 mM / remaining at 1.5 h, 1.5 mM / remaining at 2 h, 1.5 mM / remaining at 8 h, 1.5 mM: chymotrypsin (isolated protease) in Tris buffer, read-out: enzyme degradation studies, peptide at time point; for remaining at 5 min, 1.5 mM / remaining at 0.25 h, 1.5 mM / remaining at 0.5 h, 1.5 mM / remaining at 0.75 h, 1.5 mM / remaining at 1 h, 1.5 mM / remaining at 1.5 h, 1.5 mM / remaining at 2 h, 1.5 mM / remaining at 8 h, 1.5 mM / enzyme degradation studies, peptide at time point: chymotrypsin, 10 mM Tris buffer pH 7.5, peptide 1.5 mM; for remaining at 0.25 h, 1.5 mM: time 15 min; for remaining at 0.5 h, 1.5 mM: time 30 min; for remaining at 0.75 h, 1.5 mM: time 45 min; for remaining at 1 h, 1.5 mM: time 60 min; for remaining at 1.5 h, 1.5 mM: time 90 min; for remaining at 2 h, 1.5 mM: time 120 min; for remaining at 8 h, 1.5 mM: time 480 min; for enzyme degradation studies, peptide at time point: time 0 min. The procedure: FIG. 25, comprising FIG. 25A through FIG. 25C, depicts representative enzymatic Degradation Studies. Linear peptide AVGPFEY (SEQ ID NO: 13) and cyclic peptide cyc(AVGPFEY) (SEQ ID NO: 13) 2a were individually dissolved in 10 mM Tris buffer pH 7.5 (final conc. 1.5 mM). A chymotrypsin stock solution was created by the addition of 1 mg chymotrypsin in 100 μL CaCl2 (0.01 M), 100 μL tris buffer (0.1 M pH 7.5), 100 μL HCl (1 mM). 10 μL of the chymotrypsin stock solution was added to both linear peptide AVGPFEY (SEQ ID NO: 13) and cyclic peptide cyc(AVGPFEY) (SEQ ID NO: 13) 2a solutions. Samples (100 μL) were taken after regular intervals of time from both linear and cyclic peptide solutions. 100 μL of each sample was quenched with 400 μL of frozen water and solutions were frozen at −80° C. at the following time intervals: 0 min, 5 min, 15 min, 30 min, 45 min, 60 min, 90 min, 120 min, and 480 min. Each sample was lyophilized and analyzed using HPLC and LCMS. FIG. 25A depicts a schematic representation of the enzyme degradation of cyclic peptide cyc(AVGPFEY) (SEQ ID NO: 13) 2a. FIG. 25B depicts a schematic representation of the enzyme degradation of linear peptide 1a. FIG. 25C depicts representative HPLC data of various time aliquots of the enzyme degradation of linear peptide 1a.
To evaluate the potential of 4-imidazolidinone cyclic peptides for biological applications, the proteolytic stability of a cyclic peptide cyc(AVGPFEY) (SEQ ID NO: 13) 2a in comparison with its linear counterpart AVGPFEY (SEQ ID NO: 13) was examiner. Linear peptide AVGPFEY ID NO: 13) and cyclic peptide cyc(AVGPFEY) (SEQ ID NO: 13) 2a were incubated with chymotrypsin, which hydrolyzes peptide bonds at the C-terminal side of aromatic residues, such as Phe.

Series [1] is described as follows: CyClick: N-terminal amine condenses with side-chain or C-terminal aldehyde (or ketone) to a cyclic imine, then the residue-2 amide N attacks to give a 4-imidazolidinone; DMAP (7 equiv). The settings on record: H2O/DMF 1:1, 5.0 mM, 25.0 °C.
A short description of series [2]: Stability of 4-imidazolidinone cyclic peptide under different pH conditions (hydrolysis/degradation, HPLC). It is filed as physicochemical. The settings on record: 10 mM phosphate buffer, pH 3.5, 5.5, 7.5, 8.5, 10.5, room temperature, up to 24 h. The procedure:
FIG. 22, comprising FIG. 22A through FIG. 22D, depicts representative effects of 4-imidazolidinone in cyclic peptides. FIG. 22A depicts representative VT-NMR spectra of head-to-tail 4-imidazolidinone cyclic peptide 4a in aqueous solutions. FIG. 22B depicts representative turn structure of 4-imidazolidinone cyclic peptide 4a obtained by running ForceGen (Jain A N et al., 2019, J. Comput.-Aided Mol. Des., 33:531) with NMR constraints. […] Cyclic peptide cyc(NVGPFEY) (SEQ ID NO: 19) 2f (2.5 mg) was dissolved in H2O to form a stock solution (500 μL, conc. 7 mM). 100 μL of the stock was added to 400 μL of sodium phosphate buffer (10 mM) at the following pH values: 3.5, 5.5, 7.5, 8.5, 10.5 (total conc. 1.4 mM). The reactions were shaken at room temperature. Samples were analyzed by injecting them in HPLC after regular intervals of time. […] FIG. 22D depicts representative proteolytic stability of 4-imidazolidinone cyclic peptide 2a as compared to its linear counterpart.
The stability of cyclic peptides is a major concern, for pharmaceutical applications. To evaluate the stability of a 4-imidazolidinone cyclic peptide, cyclic peptide cyc(NVGPFEY) (SEQ ID NO: 19) 2f was incubated under different pH conditions.

Series [3] can be described thus: Enzymatic degradation study: proteolytic stability on incubation with chymotrypsin (HPLC, LCMS). The series is classed as in vitro ADME. The settings on record: chymotrypsin (isolated protease) in Tris buffer, pH 7.5; up to 24 h; HPLC and MS analysis; read-out: cleavage observed in the presence of chymotrypsin.

As for AVGPFEY-NH2 [AVGPFEY], the “time until fully consumed in the presence of chymotrypsin” value on chymotrypsin (HPLC and MS analysis) worked out at 90 min. On chymotrypsin, the remaining at 5 min, 1.5 mM is 82.9%; the remaining at 0.25 h, 1.5 mM turned out to be 66.3%; the remaining at 0.5 h, 1.5 mM was determined as 38.6%; the remaining at 0.75 h, 1.5 mM came out at 20.2%. For the same compound, on chymotrypsin, the remaining at 1 h, 1.5 mM was determined as 10.9%; the remaining at 1.5 h, 1.5 mM was 7.7%; the remaining at 2 h, 1.5 mM amounted to 0%; the remaining at 8 h, 1.5 mM stood at 0%. On chymotrypsin, this compound gave an enzyme degradation studies, peptide at time point of 100%. Also, the half-life – broadly, the time needed for the level to fall by half in the phase considered – at 1.5 mM at chymotrypsin (chymotrypsin in Tris buffer, pH 7.5, HPLC and MS analysis, read-out: half-life in the presence of chymotrypsin) amounted to 20 min.

In the case of `CC(C)[C@H]1C(=O)NCC(=O)N2CCC[C@H]2C(=O)N[C@@H](Cc2ccccc2)C(=O)N[C@H](C(=O)N[C@@H](Cc2ccc(O)cc2)C(N)=O)CCC(=O)NCC2N[C@@H](CO)C(=O)N21` (stereo partly drawn) [H-Ser-Val-Gly-Pro-Phe-Glu(NH-CH2-CHO)-Tyr-NH2], the ring closure, conversion by HPLC in series [1] (from CC(C)[C@H](NC(=O)[C@@H](N)CO)C(=O)NCC(=O)N1CCC[C@H]1C(=O)N[C@@H](Cc1ccccc1)C(=O)N[C@@H](CCC(=O)NCC=O)C(=O)N[C@@H](Cc1ccc(O)cc1)C(N)=O, 20-membered ring) turned out to be 100%.

With `NCCCC[C@H](NC(=O)[C@@H]1CCC(=O)NCC2N[C@@H](CC(N)=O)C(=O)N2[C@@H](Cc2ccccc2)C(=O)N2CCC[C@H]2C(=O)N[C@@H](Cc2ccccc2)C(=O)N1)C(N)=O` (stereo partly drawn) [H-Asn-Phe-Pro-Phe-Glu(NH-CH2-CHO)-Lys-NH2], in series [1] (from NCCCC[C@H](NC(=O)[C@H](CCC(=O)NCC=O)NC(=O)[C@H](Cc1ccccc1)NC(=O)[C@@H]1CCCN1C(=O)[C@H](Cc1ccccc1)NC(=O)[C@@H](N)CC(N)=O)C(N)=O, 17-membered ring), the ring closure, conversion by HPLC stood at 70%.

As for `CC(C)[C@H]1C(=O)NCC(=O)N2CCC[C@H]2C(=O)N[C@@H](Cc2ccccc2)C(=O)N[C@H](C(=O)N[C@@H](Cc2ccc(O)cc2)C(N)=O)CCC(=O)NCC2N[C@@H](C)C(=O)N21` (stereo partly drawn) [H-Ala-Val-Gly-Pro-Phe-Glu(NH-CH2-CHO)-Tyr-NH2], in series [1] (from CC(C)[C@H](NC(=O)[C@H](C)N)C(=O)NCC(=O)N1CCC[C@H]1C(=O)N[C@@H](Cc1ccccc1)C(=O)N[C@@H](CCC(=O)NCC=O)C(=O)N[C@@H](Cc1ccc(O)cc1)C(N)=O, 20-membered ring, 8.0 h), the ring closure, conversion by HPLC worked out at 99%.

Take `C[C@@H]1N=CCNC(=O)CC[C@@H](C(=O)N[C@@H](Cc2ccc(O)cc2)C(N)=O)NC(=O)[C@H](Cc2ccccc2)NC(=O)[C@H](C)NC(=O)CNC(=O)[C@@H]2CCCN2C1=O` [H-Ala-Pro-Gly-Ala-Phe-Glu(NH-CH2-CHO)-Tyr-NH2]: the ring closure, conversion by HPLC in series [1] (from C[C@H](N)C(=O)N1CCC[C@H]1C(=O)NCC(=O)N[C@@H](C)C(=O)N[C@@H](Cc1ccccc1)C(=O)N[C@@H](CCC(=O)NCC=O)C(=O)N[C@@H](Cc1ccc(O)cc1)C(N)=O, 20-membered ring) turned out to be 0%.

For the compound `C[C@@H]1NC2[C@H](C)NC(=O)[C@@H]3CCCN3C(=O)CNC(=O)[C@H](Cc3ccccc3)N2C1=O` (stereo partly drawn) [H-Ala-Phe-Gly-Pro-Ala-H (C-terminal aldehyde)], the ring closure, conversion by HPLC in series [1] (from C[C@H](N)C(=O)N[C@@H](Cc1ccccc1)C(=O)NCC(=O)N1CCC[C@H]1C(=O)N[C@@H](C)C=O, 12-membered ring) was 71%.

“cyc(Asn-Val-Gly-Pro-Phe-Glu)-Tyr (NVGPFEY; not fully specified (residue 6, bridges); printed as cyc(Asn-Val-Gly-Pro-Phe-Glu)-Tyr; also: Glu side-chain aldehyde, bridge at N, other end not in the chain) [2f]”: the “resistance to hydrolysis/degradation under different pH conditions” value in series [2] is recorded as “remained unchanged; also recorded: No degradation”.

As to `C[C@@H]1NC(=O)[C@@H]2CCCN2C(=O)CN2C(=O)[C@H](Cc3ccccc3)NC12` (stereo partly drawn) [H-Phe-Gly-Pro-Ala-H (C-terminal aldehyde)], the ring closure, conversion by HPLC in series [1] (from C[C@@H](C=O)NC(=O)[C@@H]1CCCN1C(=O)CNC(=O)[C@@H](N)Cc1ccccc1, 9-membered ring, 24.0 h) turned out to be 0%.

Take `CC(C)[C@H]1C(=O)NCC(=O)N2CCC[C@H]2C(=O)N[C@@H](Cc2ccccc2)C(=O)N[C@H](C(=O)N[C@@H](Cc2ccc(O)cc2)C(N)=O)CCCCNC(=O)CCC2(C)N[C@@H](C)C(=O)N12` (stereo partly drawn) [H-Ala-Val-Gly-Pro-Phe-Lys(levulinoyl)-Tyr-NH2]: the ring closure, conversion by HPLC in series [1] (from CC(=O)CCC(=O)NCCCC[C@H](NC(=O)[C@H](Cc1ccccc1)NC(=O)[C@@H]1CCCN1C(=O)CNC(=O)[C@@H](NC(=O)[C@H](C)N)C(C)C)C(=O)N[C@@H](Cc1ccc(O)cc1)C(N)=O, 23-membered ring) is 36%.

For the compound `CC(C)[C@H]1C(=O)NCC(=O)N2CCC[C@H]2C(=O)N[C@@H](Cc2ccccc2)C(=O)N[C@H](C(=O)N[C@@H](Cc2ccc(O)cc2)C(N)=O)CCC(=O)NC[C@@H]2N[C@@H](C)C(=O)N21` [2a, cyc(Ala-Val-Gly-Pro-Phe-Glu)Tyr], in series [3], the metabolised at 24 h, 1.5 mM was found to be 20%. Further, on chymotrypsin, the remaining at 5 min, 1.5 mM came out at 100%; the remaining at 0.25 h, 1.5 mM stood at 100%; the remaining at 0.5 h, 1.5 mM came out at 100%; the remaining at 0.75 h, 1.5 mM is 100%. Moreover, at chymotrypsin, the remaining at 1 h, 1.5 mM is 100%; the remaining at 1.5 h, 1.5 mM worked out at 100%; the remaining at 2 h, 1.5 mM was 100%; the remaining at 8 h, 1.5 mM amounted to 91.9%. At chymotrypsin, this compound gave an enzyme degradation studies, peptide at time point of 100%.

As to `CC(C)[C@H]1C(=O)NCC(=O)N2CCC[C@H]2C(=O)N[C@@H](Cc2ccccc2)C(=O)N[C@H](C(=O)N[C@@H](Cc2ccc(O)cc2)C(N)=O)CCC(=O)NCC2N[C@@H](CC(N)=O)C(=O)N21` (stereo partly drawn) [H-Asn-Val-Gly-Pro-Phe-Glu(NH-CH2-CHO)-Tyr-NH2], the ring closure, conversion by HPLC in series [1] (from CC(C)[C@H](NC(=O)[C@@H](N)CC(N)=O)C(=O)NCC(=O)N1CCC[C@H]1C(=O)N[C@@H](Cc1ccccc1)C(=O)N[C@@H](CCC(=O)NCC=O)C(=O)N[C@@H](Cc1ccc(O)cc1)C(N)=O, 20-membered ring, 16.0 h) came out at 85%.

As for `CC(C)[C@H]1C(=O)NCC(=O)N2CCC[C@H]2C(=O)N[C@@H](Cc2ccccc2)C(=O)N[C@H](C(=O)N[C@@H](Cc2ccc(O)cc2)C(N)=O)CCC(=O)NCC2N[C@@H](CCCCN)C(=O)N21` (stereo partly drawn) [H-Lys-Val-Gly-Pro-Phe-Glu(NH-CH2-CHO)-Tyr-NH2], the ring closure, conversion by HPLC in series [1] (from CC(C)[C@H](NC(=O)[C@@H](N)CCCCN)C(=O)NCC(=O)N1CCC[C@H]1C(=O)N[C@@H](Cc1ccccc1)C(=O)N[C@@H](CCC(=O)NCC=O)C(=O)N[C@@H](Cc1ccc(O)cc1)C(N)=O, 20-membered ring) was 84%.

These data come from patent publication US12043674B2, “Synthetic cyclic peptides and methods of preparation and use thereof” (Auburn University, priority 2020, dated 2024).
